# According to patent US20130172324A1, “METHOD FOR TREATING CARDIOVASCULAR DISEASES USING RHO KINASE INHIBITOR COMPOUNDS” (priority 2008, published 2013):
# Key:
# rat trachea rings = experiment: Tracheal relaxation assay (carbachol precontracted rings); settings: for Percentage of carbachol-induced contraction at 10 μM compound, Avg %: 1 μM carbachol; for IC50: Rattus norvegicus, read-out: IC50 Avg;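 on all read-outs here: isometric tension of rat tracheal rings in Krebs buffer with 1 µM indomethacin, compounds added cumulatively at 30 min intervals, basal tension subtracted, fit to Hill equation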
# Experimental: The effects of compounds to induce relaxation of pre-contracted rat trachealis were determined. […] Trachea were excised, cleaned of connective tissue and cut into cylindrical segments of 2-3 mm length. Two stainless steel wires were guided through the lumen of the tracheal ring. One wire was fixed in the tissue bath and the other was connected to a force transducer via surgical silk. […] Indomethacin (1 μM), a cyclooxygenase inhibitor, was added to the Krebs buffer and was present throughout the experiments. Contractile tensions were measured using an isometric force transducer (Grass Instruments) and signals were analyzed using specialized software (Chart v5.5, ADInstruments). The preparations were allowed to equilibrate at a resting tension of 0.3 to 0.5 gm prior to two challenges with 60 mM KCl to assess tissue viability. After washing, tissues were treated with 1 μM carbachol for 10 to 15 minutes to induce a contractile response. Test Compounds were added cumulatively to the bath every 30 minutes and reductions in tension were recorded. Basal tension was subtracted from all values and data were reported as a percentage of the maximal carbachol-induced contraction. Data were fit to the Hill equation using GraphPad Prism v5 software.
# [1] = system: A-10 rat thoracic aorta cells; experiment: PDGF-stimulated smooth muscle cell proliferation assay (BrdU); type: cell-based; settings: 10 μM compound, 10 ng/mL PDGF, A-10 cells, percent of total challenge-stimulated proliferation
# Experimental: Effects on cell proliferation were measured using a bromodeoxyuridine (BrdU) incorporation assay. […] Serum free media containing 0.1% BSA was added to the cells. 24 hours later the media was removed and replaced with warmed serum free media. […] Proliferation was then monitored using the BrdU Cell Proliferation Assay, HTS (Calbiochem cat. #HTS01). BrdU was allowed to incorporate into cells for 24 hours prior to the addition of fixative/denaturing solution and the fluorometric detection of incorporated BrdU using a BrdU antibody as per manufacturer's directions. Data are reported as a percent of the PDGF-stimulated BrdU incorporation.
# [2] = Rat oral pharmacokinetics (plasma); type: in vivo; settings: rat, oral, 20-30 μmol/kg, plasma, mean of n = 3
# Experimental: Plasma (EDTA K2 anticoagulant) was collected from male, cannulated, CD Sprague Dawley rats to determine the pharmacokinetics of formulations containing compound inhibitors of Rho kinase. Each animal was dosed orally with a 4 ml/kg solution or suspension of each test compound in 10 mM acetate buffered saline, pH 4.5 at a final concentration range of 20-30 μmol/kg. Blood was collected at 0.25, 0.5, 1, 2, 4, 6, 8, and 24 hours. Plasma samples were assayed for the concentration of the test compound using an on-line, solid phase extraction LC/MS/MS analysis system.
# Samples were analyzed on a QSTAR Elite, hybrid quadrupole time-of-flight mass spectrometer (Applied Biosystems, Framingham, Mass.) coupled with a Symbiosis Pharma integrated, on-line SPE-HPLC system (Spark Holland Inc., Plainsboro, N.J.). Analyst QS 2.0 software was used for instrument control, data acquisition and processing. […] Mobile Phase A consisted of 0.1% ammonium hydroxide in water and Mobile Phase B consisted of 0.1% formic acid in acetonitrile. Pharmacokinetic analyses were performed using WinNonlin software version 5.2 (Pharsight Corporation, Mountain View, Calif.).
# As determined from the plasma concentration versus time curves, the time to peak and peak exposure are represented by the values Tmax and Cmax, respectively. The AUC values (nM*hr) shown were calculated as the areas under the plasma concentration versus time curves from time zero through the time of the last observable value and represent the total exposure of the compound over the course of the study. Half-life values or the amount of time required for the plasma levels of the compound to decline to half the initial value are represented as t1/2.
# rat pulmonary artery = experiment: Pulmonary arterial relaxation assay (norepinephrine precontracted rings)
# Experimental: Pulmonary artery or aorta were excised, cleaned of connective tissue and cut into cylindrical segments of 2-3 mm length. The preparations were mounted in a tissue bath by tying two threads of surgical silk through the lumen of the vessel. One silk was used to anchor the tissue to a metal wire in the bath and the other silk was connected to a force transducer. […] Contractile tensions were measured using an isometric force transducer (Grass Instruments) and signals were analyzed using specialized software (Chart v5.5, ADInstruments). The preparations were allowed to equilibrate at a resting tension of 0.1 to 0.2 gm for pulmonary artery and 2.0 gm for aorta prior to two challenges with 80 mM KCl to assess tissue viability. After washing, tissues were treated with 100 nM norepinephrine for 5 to 10 minutes to induce a contractile response. For pulmonary artery, compounds were added cumulatively to the bath every 30 minutes and reductions in tension were recorded. Basal tension was subtracted from all values and data was reported as a percentage of the maximal norephinephrine-induced contraction. Data were fit to the Hill equation using GraphPad Prism v5 software. For aorta, a single dose of compound was added and reductions in tension were recorded.
# rat aorta = experiment: Aortal relaxation assay (norepinephrine precontracted rings); settings: 100 μM compound, 100 nM norepinephrine; FIG. 4B
# Experimental: This assay is a model for selecting compounds for treating diseases that involve constriction of arterial smooth muscle, such as atherosclerosis and systemic hypertension. The effects of compounds to induce relaxation of pre-contracted rat pulmonary artery and rat aorta were determined. […] Pulmonary artery or aorta were excised, cleaned of connective tissue and cut into cylindrical segments of 2-3 mm length. The preparations were mounted in a tissue bath by tying two threads of surgical silk through the lumen of the vessel. One silk was used to anchor the tissue to a metal wire in the bath and the other silk was connected to a force transducer. […] Contractile tensions were measured using an isometric force transducer (Grass Instruments) and signals were analyzed using specialized software (Chart v5.5, ADInstruments). The preparations were allowed to equilibrate at a resting tension of 0.1 to 0.2 gm for pulmonary artery and 2.0 gm for aorta prior to two challenges with 80 mM KCl to assess tissue viability. […] For pulmonary artery, compounds were added cumulatively to the bath every 30 minutes and reductions in tension were recorded. Basal tension was subtracted from all values and data was reported as a percentage of the maximal norephinephrine-induced contraction. […] For aorta, a single dose of compound was added and reductions in tension were recorded.
Structure (SMILES),"Percentage of carbachol-induced contraction at 10 μM compound, Avg % (rat trachea rings)",IC50 (rat trachea rings),Percent of PDGF Induced Proliferation at 10 μM Avg [1],AUC (0-last) [2],Cmax [2],Tmax [2],Vz_F [2],t½ [2],"relaxant response in precontracted pulmonary artery (rat pulmonary artery; 100 nM norepinephrine precontracted, FIG. 4A)","IC50 (rat pulmonary artery; Rattus norvegicus, read-out: IC50 for compound-induced relaxation)",norepinephrine-induced contractile response (tension) of aortal ring (rat aorta)
"CSc1ccc(CN2CC[C@@H](Nc3cccc4cnccc34)C2)cc1 [Compound 2.026, (R)-N-(1-(4-(methylthio)benzyl)pyrrolidin-3-yl)isoquinolin-5-amine]",17.1%,2860 nM,52.0%,BLQ,BLQ,BLQ,BLQ,BLQ,–,–,–
"OCCOc1cccc(CN2CC[C@@H](Nc3cccc4cnccc34)C2)c1 [Compound 2.039, (R)-2-(3-((3-(isoquinolin-5-ylamino)pyrrolidin-1-yl)methyl)phenoxy)ethanol]",6.2%,343 nM,–,–,–,–,–,–,fully relaxed,151 nM,fully reversed
